Reference: patent publication US9169509B2, “Topoisomerase 2b as a predictor of susceptibility to anthracycline-induced cardiotoxicity” (Board of Regents, The University of Texas System, priority 2013, dated 2015)
Values belong to the compound of their own block, whether it stands above or below them. Peptide text beside a SMILES is read from it. * marks the point of attachment. Cbz = O=C(OCc1ccccc1)*

How the values were obtained:
Top2b [1] = biological target: T1, Top2b (Homo sapiens, UniProt Q02880); experiment: Immunoblot of Top2b in U2OS cells treated with Dex and/or MG132; type: cell-based
T1 construct: endogenous in cells; host or cells: U2OS
Experimental: (§1) FIG. 10. […] U2OS cells were treated with 100 mM Dex and/or 10 mM MG132, a proteosome inhibitor, for 2, 4, or 6 hours. Cell lysates were immunoblotted with anti-Top2a, Top2b, or actin antibodies.
(§2) The effect of Dex treatment of Top2a levels was also tested. Briefly, U2OS cells were treated with 100 mM Dex and/or 10 mM MG132 (a proteosome inhibitor) for 2, 4, or 6 hours. Cell lysates were immunoblotted with anti-Top2a, Top2b, or actin antibodies.

mouse heart = experiment: Cardiac MRI for measuring cardiac function after chronic doxorubicin
Experimental: Before Cre induction, cardiac MRI scan was performed on each mouse to examine the baseline ejection fraction. Cardiomyocyte-specific Cre induction was carried out by treating mice with tamoxifen. […] Doxorubicin treatment (5 mg/kg, i.p., once a week for 5 weeks) was started 7 days after the second MRI scan. Two weeks after the last dose of doxorubicin, a third MRI scan was performed (FIG. 6a).
Every mouse in the EF experiments received 3 MRI scans, i.e., a baseline scan, a second scan 2 weeks after the end of tamoxifen treatment, and a third scan 2 weeks after the last dose of doxorubicin. […] Mice were anesthetized with isoflurane (2.5% in 97.5% O2), and scanned on a 7.0 T Biospec small animal scanner (Bruker Biospin Inc., Billerica, Mass.). Imaging gradients with 60 mm inner diameter (ID) were used with a 35 mm ID linear birdcage-style volume resonator. T1-weighted anatomic reference images were acquired using a three dimension (3D) fast low-angle shot (FLASH) gradient echo sequence. A retrospectively gated FLASH pulse sequence was used to acquire cardiac cine images with excellent contrast between bright blood and adjacent myocardium. To measure volumetric left ventricular ejection fraction (LVEF), at least 6 short axis images were scanned at 1 mm interval from the apex to the base of the heart. End-diastolic (ED) and end-systolic (ES) left ventricular volumes were obtained by the biplane area length method, and LVEF was calculated with the equation: [(ED-ES)/ED]/100.
Two weeks after completion of tamoxifen treatment mice were treated with doxorubicin or drug vehicle. Two cohorts of mice were treated with different schedules. […] To evaluate the chronic effect of doxorubicin on cardiac function, doxorubicin (5 mg/kg, i.p.) was administered once a week for 5 weeks, and cardiac function was examined 2 weeks after the last dose of doxorubicin by using MRI.
The effect of chronic doxorubicin treatment (5 mg/kg, ip, once a week for 5 weeks) was evaluated for its effect on ejection fraction.

[2] = test system: DNA double strand breaks in the heart; experiment: Detection of DNA double strand breaks (γ-H2AX staining) in heart sections; type: in vivo, mouse; details: dexrazoxane 100 mg/kg ip 8 hrs prior to doxorubicin 25 mg/kg; hearts 16 hr after doxorubicin
Experimental: After mice were sacrificed, hearts were perfused with ice-cold PBS, quickly removed, embedded in OCT compound (Fisher Scientific), and snap-frozen in liquid nitrogen. The heart was sectioned to 5 μm-thick slices using a cryostat. Heart sections were stored at −80° C. until immunofluorescence staining was performed. Heart sections were rinsed with PBS at room temperature, fixed in BD Cytofix/Cytoperm solution (BD Biosciences) for 15 m, washed in PBS, and permeabilized in BD Perm/Wash solution for 30 m. Heart sections were first blocked with BSA (2 mg/ml) for 30 m, then incubated with an mouse monoclonal anti-γ-H2AX antibody conjugated with Alexa Fluor 555 (Clone N1-431, BD Biosciences) for 1 h. Nuclei were stained with DAPI (Sigma, 1 μg/ml PBS), and the slides were sealed for examination with an Olympus epifluorescence microscope (Model BX51). To quantify DSBs, the numbers of γ-H2AX-positive nuclei and the total nuclei were counted in 5 microscopic fields (400×) per section. For each mouse, five heart sections were counted to determine the percentage of γ-H2AX-positive nuclei.
To further confirm the cardio-protective effect of Dex, DNA double strand breaks were assessed in heart tissues. Dexrazoxane (100 mg/kg) was injected (ip) 8 hrs prior to doxorubicin (25 mg/kg) treatment. Hearts were harvested 16 hr after doxorubicin treatment. The percentage of γH2AX-positive nuclei was counted in 5 fields (400×) in each heart section. Five sections were counted in each heart to determine the average percentage of γH2AX-positive nuclei.

heart sections = experiment: Detection of apoptosis in heart sections (TUNEL assay); type: in vivo, mouse; details: dexrazoxane 100 mg/kg ip 8 hrs prior to doxorubicin 25 mg/kg ip; hearts 16 hrs after doxorubicin
Experimental: Apoptosis was detected by using TUNEL assay on heart sections. Heart harvest, sectioning, and storage were described above. Heart sections were warmed to room temperature before the apoptotic nuclei were stained by using a commercially available kit (In Situ Cell Death Detection Kit, Cat. No. 12156792910, Roche Applied Science). The entire staining procedures were performed according to the manufacturer's instructions. The nuclei were stained with DAPI (Sigma) before the slides were sealed and examined with an Olympus epifluorescence microscope (Model BX51). The apoptotic nuclei and the total nuclei per heart section were counted at 200× magnification. The apoptotic nuclei in 5 heart sections of each mouse were counted and averaged.
The cardio-protective effect of Dex against doxirubin-induced apoptosis was assessed in heart tissues. Dexrazoxane (100 mg/kg) was injected (ip) 8 hrs prior to doxorubicin (25 mg/kg) injection (ip). One group received only doxorubicin and a second group received only dexrazoxane. Hearts were harvested 16 hrs after doxorubicin treatment. The numbers of TUNEL-positive nuclei were counted in five fields in each heart section.

Top2b [3] = biological target: T2, Top2b (Mus musculus, UniProt Q64511); experiment: Western blot of Top2b protein levels in heart tissue after dexrazoxane; type: in vivo; details: dexrazoxane 100 mg/kg i.p.
T2 construct: Frozen tissues were homogenized in lysis buffer and sonicated to extract proteins for western blotting; from tissue; host or cells: mouse heart
Experimental: Expression of Top2b was examined in the hearts of mice. After sacrifice, the heart was quickly removed and homogenized immediately in lysis buffer. After homogenization, the lysate was sonicated at 4° C. and an aliquot was removed for protein concentration measurement. The lysate was stored at −80° C. for western blot analysis. 20 μg of lysate proteins were electrophoresed and transferred to PVDF membranes. Blots were blocked with 5% non-fat dry milk, and incubated overnight at 4° C. with anti-Top2b antibody (Abcam). To detect mitochondrial proteins, the mitochondria were isolated from cardiomyocytes. The cardiomyocytes were isolated with a Langendorff perfusion system according to a published protocol3. Briefly, heart was removed and rinsed with ice-cold PBS twice before connecting to a Langendorff apparatus through the aorta. The heart was perfused first with perfusion buffer for 3 m at 37° C. (3 ml/min), then digestion buffer (enzyme-containing) buffer at 37° C. for 8-10 m. The heart was disintegrated manually and the tissue/cells were separated by using forceps. The tissue/cell suspension was incubated for another 3-5 m in digestion buffer, then triturate the cells gently using a 1 ml pipette before adding stopping buffer. After purification by centrifugation the mitochondria were isolated from the cardiomyocytes with a kit (Cat. No. MS853, Mitosciences) for separating mitochondria from nuclei and cytosol. The isolated mitochondria were homogenized in lysis buffer and sonicated before being stored at −80° C. until use. 20 μg of lysate proteins were electrophoresed and transferred to PVDF membranes. Blots were blocked incubated overnight at 4° C. with anti-Ndufa3 (Sigma), anti-Atp5a (Abcam) or anti-Sdha antibodies (Abcam). After incubation with HRP-conjugated secondary antibodies for 40 m at room temperature, the blots were detected with a luminol-based detection kit (ECL, GE Health Care).
To test the effect of dexrazoxane (Dex) on Top2b protein levels, mice were treated with dexrazoxane (100 mg/kg, i.p.). At different time points following treatment hearts were removed under anesthesia and perfused with PBS to remove blood. Each heart was cut into 10 pieces and snap-frozen in liquid nitrogen. Frozen tissues were homogenized in lysis buffer and sonicated to extract proteins for western blotting.

Top2a = biological target: T3, Top2a (Homo sapiens, UniProt P11388); experiment: Immunoblot of Top2a in U2OS cells treated with Dex and/or MG132; type: cell-based; details: 100 mM Dex for 2, 4, or 6 hours
T3 construct: endogenous in cells; host or cells: U2OS
Experimental: as §1, §2

T2 sequence (Q64511 2-1612 limits assumed): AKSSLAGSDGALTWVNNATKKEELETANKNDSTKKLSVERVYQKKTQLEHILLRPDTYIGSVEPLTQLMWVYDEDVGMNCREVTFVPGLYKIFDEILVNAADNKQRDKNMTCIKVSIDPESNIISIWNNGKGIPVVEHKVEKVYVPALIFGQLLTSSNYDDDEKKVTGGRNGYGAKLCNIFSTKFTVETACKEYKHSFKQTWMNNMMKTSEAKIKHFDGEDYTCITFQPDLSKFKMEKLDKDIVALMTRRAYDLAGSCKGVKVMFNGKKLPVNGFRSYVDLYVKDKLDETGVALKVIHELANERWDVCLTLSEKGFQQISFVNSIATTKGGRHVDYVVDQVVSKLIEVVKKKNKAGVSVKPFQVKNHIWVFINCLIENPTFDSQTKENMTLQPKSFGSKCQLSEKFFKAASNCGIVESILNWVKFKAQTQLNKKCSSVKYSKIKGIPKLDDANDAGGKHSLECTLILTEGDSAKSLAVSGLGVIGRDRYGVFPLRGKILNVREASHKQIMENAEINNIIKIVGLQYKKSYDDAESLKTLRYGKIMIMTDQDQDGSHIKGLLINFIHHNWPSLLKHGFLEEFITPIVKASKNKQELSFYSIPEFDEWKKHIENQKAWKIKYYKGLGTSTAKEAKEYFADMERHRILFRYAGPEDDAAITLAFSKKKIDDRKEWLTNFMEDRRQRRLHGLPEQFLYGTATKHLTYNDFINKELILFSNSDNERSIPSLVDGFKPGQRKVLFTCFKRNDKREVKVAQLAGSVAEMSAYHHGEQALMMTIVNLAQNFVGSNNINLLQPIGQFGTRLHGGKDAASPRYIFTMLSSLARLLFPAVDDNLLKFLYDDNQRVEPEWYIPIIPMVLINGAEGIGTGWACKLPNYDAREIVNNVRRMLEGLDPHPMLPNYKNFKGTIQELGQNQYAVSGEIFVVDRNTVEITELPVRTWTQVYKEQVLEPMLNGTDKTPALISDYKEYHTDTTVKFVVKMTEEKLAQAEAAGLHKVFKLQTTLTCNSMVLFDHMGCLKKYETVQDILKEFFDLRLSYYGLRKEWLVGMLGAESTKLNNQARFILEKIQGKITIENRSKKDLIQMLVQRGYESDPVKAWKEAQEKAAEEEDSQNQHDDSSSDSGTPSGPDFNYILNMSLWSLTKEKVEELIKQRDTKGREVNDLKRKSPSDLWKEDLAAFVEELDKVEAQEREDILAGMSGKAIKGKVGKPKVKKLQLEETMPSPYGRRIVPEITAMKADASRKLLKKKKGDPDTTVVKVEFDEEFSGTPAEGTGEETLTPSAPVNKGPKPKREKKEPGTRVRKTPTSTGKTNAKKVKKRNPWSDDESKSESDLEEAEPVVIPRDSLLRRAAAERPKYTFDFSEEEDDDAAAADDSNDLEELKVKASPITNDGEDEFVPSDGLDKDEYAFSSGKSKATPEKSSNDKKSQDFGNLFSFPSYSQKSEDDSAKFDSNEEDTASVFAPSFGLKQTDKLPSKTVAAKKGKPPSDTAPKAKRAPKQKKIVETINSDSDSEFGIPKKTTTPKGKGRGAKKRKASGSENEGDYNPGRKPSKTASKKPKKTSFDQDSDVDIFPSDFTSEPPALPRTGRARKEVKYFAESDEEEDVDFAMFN
T1 sequence (Q02880 2-1626 limits assumed): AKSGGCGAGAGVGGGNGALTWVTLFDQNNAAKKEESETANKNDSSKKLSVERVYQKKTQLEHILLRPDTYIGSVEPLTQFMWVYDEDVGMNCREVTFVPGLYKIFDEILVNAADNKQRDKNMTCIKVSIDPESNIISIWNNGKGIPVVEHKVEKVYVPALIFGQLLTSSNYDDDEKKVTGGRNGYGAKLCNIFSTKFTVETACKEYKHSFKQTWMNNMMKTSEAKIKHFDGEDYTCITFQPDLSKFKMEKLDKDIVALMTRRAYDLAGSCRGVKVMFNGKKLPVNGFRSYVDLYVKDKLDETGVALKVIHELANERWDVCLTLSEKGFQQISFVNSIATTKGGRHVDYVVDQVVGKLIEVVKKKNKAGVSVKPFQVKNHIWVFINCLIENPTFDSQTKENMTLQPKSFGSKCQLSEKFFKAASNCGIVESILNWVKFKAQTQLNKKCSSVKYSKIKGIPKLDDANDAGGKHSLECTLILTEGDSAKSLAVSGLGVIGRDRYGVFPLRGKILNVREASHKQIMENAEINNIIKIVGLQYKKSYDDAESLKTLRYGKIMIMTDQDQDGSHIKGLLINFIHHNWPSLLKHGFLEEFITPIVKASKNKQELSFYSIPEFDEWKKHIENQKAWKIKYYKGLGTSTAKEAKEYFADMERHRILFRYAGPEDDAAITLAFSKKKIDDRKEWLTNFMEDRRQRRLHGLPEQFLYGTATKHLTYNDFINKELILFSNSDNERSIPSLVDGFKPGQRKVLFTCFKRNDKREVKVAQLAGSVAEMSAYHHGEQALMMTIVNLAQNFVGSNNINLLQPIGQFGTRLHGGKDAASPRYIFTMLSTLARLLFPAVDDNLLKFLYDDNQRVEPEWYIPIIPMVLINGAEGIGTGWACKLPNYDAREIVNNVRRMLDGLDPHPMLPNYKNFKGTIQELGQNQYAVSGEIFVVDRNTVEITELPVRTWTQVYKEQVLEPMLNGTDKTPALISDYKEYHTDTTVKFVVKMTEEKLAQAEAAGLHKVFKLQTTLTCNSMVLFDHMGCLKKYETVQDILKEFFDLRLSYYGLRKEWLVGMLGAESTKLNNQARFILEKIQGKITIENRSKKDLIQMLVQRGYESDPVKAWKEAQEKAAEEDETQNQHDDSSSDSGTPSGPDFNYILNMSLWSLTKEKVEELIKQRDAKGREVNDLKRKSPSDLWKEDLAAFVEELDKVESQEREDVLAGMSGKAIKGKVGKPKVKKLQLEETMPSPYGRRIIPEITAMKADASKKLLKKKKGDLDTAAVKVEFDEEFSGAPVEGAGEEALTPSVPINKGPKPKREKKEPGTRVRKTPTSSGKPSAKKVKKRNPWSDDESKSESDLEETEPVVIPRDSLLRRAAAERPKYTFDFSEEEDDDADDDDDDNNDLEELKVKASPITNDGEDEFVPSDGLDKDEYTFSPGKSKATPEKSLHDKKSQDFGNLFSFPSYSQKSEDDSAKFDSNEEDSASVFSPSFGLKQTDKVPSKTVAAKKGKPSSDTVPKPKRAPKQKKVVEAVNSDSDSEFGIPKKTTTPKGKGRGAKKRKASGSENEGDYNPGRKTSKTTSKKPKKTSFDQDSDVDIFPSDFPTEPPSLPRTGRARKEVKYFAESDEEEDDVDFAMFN
T3 sequence (P11388 whole entry): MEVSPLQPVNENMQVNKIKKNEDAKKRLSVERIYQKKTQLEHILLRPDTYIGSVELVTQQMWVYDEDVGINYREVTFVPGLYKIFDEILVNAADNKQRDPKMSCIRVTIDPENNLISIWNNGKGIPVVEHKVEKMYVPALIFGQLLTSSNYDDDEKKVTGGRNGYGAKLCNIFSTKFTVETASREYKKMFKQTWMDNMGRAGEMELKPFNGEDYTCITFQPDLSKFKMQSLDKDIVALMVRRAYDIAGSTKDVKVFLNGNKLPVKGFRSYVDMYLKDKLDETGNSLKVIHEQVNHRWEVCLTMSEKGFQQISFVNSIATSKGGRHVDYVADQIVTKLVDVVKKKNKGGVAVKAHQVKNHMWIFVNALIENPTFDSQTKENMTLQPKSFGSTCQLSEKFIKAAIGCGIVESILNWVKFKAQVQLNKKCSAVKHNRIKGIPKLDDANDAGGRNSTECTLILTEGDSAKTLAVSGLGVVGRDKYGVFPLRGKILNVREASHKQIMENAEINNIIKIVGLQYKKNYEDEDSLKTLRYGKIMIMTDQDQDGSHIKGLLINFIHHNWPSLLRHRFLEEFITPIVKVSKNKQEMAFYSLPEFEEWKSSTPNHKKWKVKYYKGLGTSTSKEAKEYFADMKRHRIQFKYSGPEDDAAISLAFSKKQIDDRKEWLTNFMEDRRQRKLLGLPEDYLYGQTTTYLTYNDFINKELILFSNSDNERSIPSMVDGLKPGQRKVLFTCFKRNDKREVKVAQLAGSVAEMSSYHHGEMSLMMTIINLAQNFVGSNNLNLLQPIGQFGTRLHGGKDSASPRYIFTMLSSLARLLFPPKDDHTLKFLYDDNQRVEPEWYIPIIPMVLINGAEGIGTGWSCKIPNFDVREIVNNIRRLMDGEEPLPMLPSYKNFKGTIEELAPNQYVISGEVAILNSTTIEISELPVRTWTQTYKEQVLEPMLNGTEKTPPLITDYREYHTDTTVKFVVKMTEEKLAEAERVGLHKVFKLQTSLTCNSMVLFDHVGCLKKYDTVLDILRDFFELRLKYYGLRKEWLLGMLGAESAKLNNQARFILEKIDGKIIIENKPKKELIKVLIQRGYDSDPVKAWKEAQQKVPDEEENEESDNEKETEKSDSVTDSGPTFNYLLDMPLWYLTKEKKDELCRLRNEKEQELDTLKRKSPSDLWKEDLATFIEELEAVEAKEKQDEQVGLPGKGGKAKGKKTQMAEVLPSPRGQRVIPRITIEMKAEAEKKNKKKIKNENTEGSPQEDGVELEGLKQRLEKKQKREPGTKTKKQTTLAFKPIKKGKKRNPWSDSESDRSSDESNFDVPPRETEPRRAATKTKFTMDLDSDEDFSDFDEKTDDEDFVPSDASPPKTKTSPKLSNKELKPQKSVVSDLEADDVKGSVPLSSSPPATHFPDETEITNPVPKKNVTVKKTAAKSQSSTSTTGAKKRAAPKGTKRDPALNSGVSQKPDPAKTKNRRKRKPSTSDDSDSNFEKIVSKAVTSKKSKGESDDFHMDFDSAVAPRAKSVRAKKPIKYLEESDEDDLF

SMILES: CC(C)C[C@@H](C=O)NC(=O)[C@H](CC(C)C)NC(=O)[C@H](CC(C)C)NC(=O)OCc1ccccc1 [MG132] (Cbz-Leu-Leu-Leu-aldehyde)
Effect on Dex-mediated Top2b degradation (Top2b [1]; 10 mM MG132 with 100 mM Dex, 2, 4, or 6 hours): inhibited

Effect on ejection fractions (mouse heart; tamoxifen 25 mg/kg gavage once a day for 5 days, all three Top2b genotype groups): did not significantly affect
SMILES: CC/C(=C(\c1ccccc1)c1ccc(OCCN(C)C)cc1)c1ccccc1 [Tamoxifen, tamoxifen]

Time point at which Top2b levels begin to recover (Top2b [3]): 12 h
Top2b protein level in the heart at 6 hours (Top2b [3]; 6 hours after therapy): nearly undetectable
Top2b protein level in the heart at 24 hours (Top2b [3]; 24 hours): still noticeably reduced
Top2b protein levels in the heart (Top2b [3]; time course): greatly reduced
Degradation of Top2b (Top2b [1]; 100 mM Dex for 2, 4, or 6 hours): caused degradation of Top2b
Degradation of Top2a (Top2a): but not Top2a
Ejection fraction, Dex alone (mouse heart; mice, dexrazoxane 100 mg/kg ip alone): unchanged
SMILES: C[C@@H](CN1CC(=O)NC(=O)C1)N1CC(=O)NC(=O)C1 [dexrazoxane]
Protection against doxorubicin-induced DNA double strand breaks in the heart (γH2AX-positive nuclei) [2]: protects against doxorubicin-induced DNA double strand breaks
Protection against doxorubicin-induced apoptosis in the heart (TUNEL-positive nuclei) (heart sections): protects against doxorubicin-induced apoptosis
Ejection fraction, Dex in combination with doxorubicin (mouse heart; dexrazoxane 100 mg/kg ip 8 hrs prior to doxorubicin 5 mg/kg ip once a week for 5 weeks): unchanged
